These results are taken from US11712429B2, “Low eructation composition and methods for treating and/or preventing cardiovascular disease in a subject with fish allergy/hypersensitivity” (Amarin Pharmaceuticals Ireland Limited, priority 2010, dated 2023).

The subject of this data set is patients with fasting triglyceride levels ≥500 mg/dL. The data set can be described thus: Phase 3 12-week double-blind study: treatment-emergent adverse events. Type of data set: in vivo, human. Conditions: 12 weeks. On the procedure:
A multi-center, placebo-controlled randomized, double-blind, 12-week study with an open-label extension was performed to evaluate the efficacy and safety of AMR101 in patients with fasting triglyceride levels ≥500 mg/dL. The primary objective of the study was to determine the efficacy of AMR101 2 g daily and 4 g daily, compared to placebo, in lowering fasting TG levels in patients with fasting TG levels ≥500 mg/dL and ≤1500 mg/dL (≥5.65 mmol/L and ≤16.94 mmol/L). Approximately 240 patients were randomized at approximately 50 centers in North America, South America, Central America, Europe, India, and South Africa. The Phase 3, multi-center study consisted of 3 study periods: (1) A 6- to 8-week screening period that includes a diet and lifestyle stabilization and washout period and a TG qualifying period; (2) A 12-week, double-blind, randomized, placebo-controlled treatment period; and (3) A 40-week, open-label, extension period. After confirmation of qualifying fasting TG values, eligible patients entered a 12-week, randomized, double-blind treatment period. At Visit 4 (Week 0), patients were randomly assigned to 1 of the following treatment groups: • AMR101 2 g daily, • AMR101 4 g daily, or • Placebo. Eligible patients were randomly assigned at Visit 4 (Week 0) to receive orally AMR101 2 g daily, AMR101 4 g daily, or placebo for the 12-week double-blind treatment period. AMR101 was provided in 1 g liquid-filled, oblong, gelatin capsules. The matching placebo capsule was filled with light liquid paraffin and contained 0 g of AMR101. During the double-blind treatment period, patients took 2 capsules (AMR101 or matching placebo) in the morning and 2 in the evening for a total of 4 capsules per day. Patients in the AMR101 2 g/day treatment group received 1 AMR101 1 g capsule and 1 matching placebo capsule in the morning and in the evening. Patients in the AMR101 4 g/day treatment group received 2 AMR101 1 g capsules in the morning and evening. The efficacy variable for the open-label extension period was percent change in fasting TG from extension baseline to end of treatment. Safety assessments included adverse events, clinical laboratory measurements (chemistry, hematology, and urinalysis), 12-lead electrocardiograms (ECGs), vital signs, and physical examinations Top line results of the study are shown in FIGS. 3 and 4. Adverse events are shown in Table 9 by comparison with placebo and those experienced by subjects taking commercially available mixture of E-EPA and E-DHA (Lovaza).

Consider `CC/C=C\C/C=C\C/C=C\C/C=C\C/C=C\CCCC(=O)OCC` [AMR101, all-cis eicosa-5,8,11,14,17-pentaenoic acid ethyl ester], for which, under “2 g/day, N = 76”, the Diarrhea was 4 (5.3) n (%), the Dyspepsia is on record as 1 (1.3) n (%), the Eructation is recorded as 1 (1.3) n (%) and the Hypertension was 4 (5.3) n (%). Moreover, for the setting “2 g/day, N = 76”, the Infection is listed as 2 (2.6) n (%), the Nausea was 5 (6.6) n (%), the Skin rash is recorded as 1 (1.3) n (%) and the “Subjects with any TEAE” value is 27 (35.5) n (%). In addition, where the note is “4 g/day, N = 77”, the Diarrhea was 1 (1.3) n (%), the Dyspepsia is given as 1 (1.3) n (%), the Eructation is given as 0 (0.0) n (%) and the Hypertension is listed as 1 (1.3) n (%). Also, under “4 g/day, N = 77”, the Infection is on record as 4 (5.2) n (%), the Nausea is 1 (1.3) n (%), the Skin rash is 0 (0.0) n (%) and the “Subjects with any TEAE” value is on record as 28 (36.4) n (%).
